Data from EP1142881A1, “POLY(ADP-RIBOSE) POLYMERASE INHIBITORS CONSISTING OF PYRIMIDINE DERIVATIVES” (Meiji Seika Kaisha, Ltd., priority 1999, dated 2000).
pIC50: −log10 of the molar value.

Target: T1, PARP (Rattus norvegicus, UniProt P27008)
T1 construct: Nucleus obtained by centrifugation was extracted with 0.4 M NaCl and the resulting soluble fraction was used as a source of PARP enzyme; from tissue; host or cells: Wistar rat forebrain, nuclear 0.4 M NaCl soluble fraction
Assay: Measurement of PARP enzyme activity
Assay type: biochemical, Wistar rats
Conditions: soluble nuclear fraction of Wistar rat forebrain as enzyme source; 250 µM NAD, 32P-NAD; 37°C for 30 minutes; 6 concentrations; read-out: PARP inhibitory activity IC50
Experimental: Test method: The forebrain was collected from Wistar rats and homogenized. Nucleus obtained by centrifugation was extracted with 0.4 M NaCl and the resulting soluble fraction was used as a source of PARP enzyme source. […] Incubation was carried out at 37°C for 30 minutes, and then the reaction was stopped with 20%trichloroacetic acid. The acid-insoluble fraction produced above was adsorbed to a GF/B filter, and the filter was washed several times, and then radioactivity on the filter was measured by using a liquid scintillation counter. The PARP activity was measured by subtracting radioactivity as a blank value of a sample not added with the enzyme source. […]

T1 sequence (P27008 whole entry): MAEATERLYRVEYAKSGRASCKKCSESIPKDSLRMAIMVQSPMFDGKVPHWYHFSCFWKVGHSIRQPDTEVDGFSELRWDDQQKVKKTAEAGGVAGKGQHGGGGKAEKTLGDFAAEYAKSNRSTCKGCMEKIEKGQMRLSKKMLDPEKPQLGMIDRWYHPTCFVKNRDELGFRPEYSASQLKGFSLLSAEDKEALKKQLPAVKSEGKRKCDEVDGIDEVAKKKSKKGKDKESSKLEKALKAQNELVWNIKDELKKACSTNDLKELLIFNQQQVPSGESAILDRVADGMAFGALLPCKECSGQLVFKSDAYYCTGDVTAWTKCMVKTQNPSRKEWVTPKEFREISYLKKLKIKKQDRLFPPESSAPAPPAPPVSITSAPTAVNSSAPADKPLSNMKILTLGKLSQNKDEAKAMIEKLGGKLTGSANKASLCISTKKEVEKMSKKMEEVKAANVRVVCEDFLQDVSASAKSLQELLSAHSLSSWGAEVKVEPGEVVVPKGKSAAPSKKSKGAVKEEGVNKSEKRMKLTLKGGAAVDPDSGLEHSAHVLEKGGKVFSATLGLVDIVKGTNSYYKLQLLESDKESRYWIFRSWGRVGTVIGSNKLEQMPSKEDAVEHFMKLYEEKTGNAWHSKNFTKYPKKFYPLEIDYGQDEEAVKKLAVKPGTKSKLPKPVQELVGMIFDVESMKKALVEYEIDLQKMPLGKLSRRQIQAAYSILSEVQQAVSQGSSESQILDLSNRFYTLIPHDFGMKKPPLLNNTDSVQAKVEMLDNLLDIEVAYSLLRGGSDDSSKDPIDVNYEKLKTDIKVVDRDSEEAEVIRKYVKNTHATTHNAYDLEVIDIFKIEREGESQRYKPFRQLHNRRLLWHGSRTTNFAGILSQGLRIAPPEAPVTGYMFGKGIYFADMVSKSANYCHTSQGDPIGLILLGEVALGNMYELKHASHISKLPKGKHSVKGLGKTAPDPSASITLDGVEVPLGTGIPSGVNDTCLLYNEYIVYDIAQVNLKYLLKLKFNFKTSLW

Row | Structure (SMILES) | pIC50
1 | O=c1[nH]cnc2c1CSCC2 [Example 3, 3,5,7,8-Tetrahydrothiopyrano[4,3-d]pyrimidin-4-one] | 5.84
2 | C=C1CSCc2c1nc(C)[nH]c2=O [Example 20, 2-Methyl-8-methylene-3,5,7,8-tetrahydrothiopyrano[4,3-d]pyrimidin-4-one] | 6.60
3 | C=C1CCCc2c1nc(C)[nH]c2=O [Example 21(A), 2-Methyl-8-methylene-5,6,7,8-tetrahydro-3H-quinazolin-4-one] | 6.46

Second part, the compound after the results:

Row | pIC50 | Structure (SMILES)
4 | 6.39 | O=c1[nH]c(-c2ccccc2)nc2c1CSCC2 [Example 4, 2-Phenyl-3,5,7,8-tetrahydrothiopyrano[4,3-d]pyrimidin-4-one]
5 | 6.36 | COCC=C1CSCc2c1nc(C)[nH]c2=O [Example 39, 8-(2-Methoxyethylidene)-2-methyl-3,5,7,8-tetrahydrothiopyrano-[4,3-d]pyrimidin-4-one]
